According to the CheMixHub viscosity set:

Assay: xn = mol fraction of the nth substance listed

C=COCCCC + COC(=O)c1ccccc1
viscosity [mPa·s], 100 kPa
Conditions | x2 = 0.0898 | x2 = 0.1468 | x2 = 0.228 | x2 = 0.3145 | x2 = 0.4054 | x2 = 0.5056 | x2 = 0.6161 | x2 = 0.7316 | x2 = 0.8597
303.15 K | 0.437 | 0.497 | 0.571 | 0.657 | 0.761 | 0.891 | 1.038 | 1.205 | 1.422
308.15 K | 0.421 | 0.478 | 0.546 | – | – | – | 0.974 | 1.124 | 1.319
313.15 K | 0.4 | 0.452 | 0.515 | 0.585 | 0.671 | 0.778 | 0.897 | 1.034 | 1.205

C1CCC2CCCCC2C1 (stereo not drawn) + COC(C)(C)C
303.15 K, 101 kPa
Conditions | viscosity [mPa·s]
x2 = 0.1134 | 1.739
x2 = 0.184 | 1.547
x2 = 0.2577 | 1.367
x2 = 0.3906 | 1.089
x2 = 0.4774 | 0.935
x2 = 0.5234 | 0.863
x2 = 0.6441 | 0.694
x2 = 0.7771 | 0.543
x2 = 0.8937 | 0.431

C=CC(C)(O)CCC=C(C)C (stereo not drawn) + COC(C)(C)C
298.15 K, 101.33 kPa
Conditions | viscosity [mPa·s]
x2 = 0.0756 | 3.692
x2 = 0.1208 | 3.314
x2 = 0.1819 | 2.856
x2 = 0.3063 | 2.093
x2 = 0.3763 | 1.761
x2 = 0.5129 | 1.25
x2 = 0.5989 | 0.9982
x2 = 0.7222 | 0.7171
x2 = 0.8148 | 0.5569
x2 = 0.9106 | 0.4273
x2 = 0.9692 | 0.3605

O=[N+]([O-])c1ccccc1 + COC(C)(C)C
viscosity [mPa·s], 101.33 kPa
Conditions | x2 = 0.0921 | x2 = 0.1852 | x2 = 0.2942 | x2 = 0.3906 | x2 = 0.4845 | x2 = 0.695 | x2 = 0.7094 | x2 = 0.8055 | x2 = 0.9053
293.15 K | 1.745 | 1.535 | 1.345 | 1.096 | 1.011 | 0.7813 | 0.659 | 0.5509 | 0.4676
298.15 K | 1.625 | 1.402 | 1.203 | 0.9995 | 0.8725 | – | 0.6043 | 0.507 | 0.4335

O=[N+]([O-])c1ccccc1 + COC(C)=O
viscosity [mPa·s], 101 kPa
Conditions | 298.15 K | 308.15 K
x2 = 0.0418 | 1.689 | 1.459
x2 = 0.1491 | 1.449 | 1.261
x2 = 0.2508 | 1.25 | 1.095
x2 = 0.3515 | 1.076 | 0.949
x2 = 0.4403 | 0.941 | 0.834
x2 = 0.4882 | 0.875 | 0.777
x2 = 0.5492 | 0.796 | 0.71
x2 = 0.649 | 0.681 | 0.611
x2 = 0.7499 | 0.58 | 0.523
x2 = 0.8513 | 0.492 | 0.446
x2 = 0.9379 | 0.426 | 0.388

ClC(Cl)=C(Cl)Cl + COCCO
viscosity [mPa·s], 101.33 kPa
Conditions | x1 = 0.1062 | x1 = 0.2046 | x1 = 0.3091 | x1 = 0.4453 | x1 = 0.5214 | x1 = 0.6184 | x1 = 0.7146 | x1 = 0.8062 | x1 = 0.9015
303.15 K | 1.365 | 1.273 | 1.178 | 1.066 | 1.009 | 0.943 | 0.89 | 0.846 | 0.808
313.15 K | 1.111 | 1.049 | 0.985 | 0.907 | 0.866 | 0.819 | 0.778 | 0.747 | 0.727

O=[N+]([O-])c1ccccc1 + COCCO
Conditions | viscosity [mPa·s]
298.15 K, 101 kPa, x1 = 0.0511 | 1.561
298.15 K, 101 kPa, x1 = 0.101 | 1.58
298.15 K, 101 kPa, x1 = 0.2028 | 1.624
298.15 K, 101 kPa, x1 = 0.3038 | 1.673
298.15 K, 101 kPa, x1 = 0.4004 | 1.72
298.15 K, 101 kPa, x1 = 0.4502 | 1.743
298.15 K, 101 kPa, x1 = 0.5003 | 1.764
298.15 K, 101 kPa, x1 = 0.5524 | 1.785
298.15 K, 101 kPa, x1 = 0.6001 | 1.801
298.15 K, 101 kPa, x1 = 0.6981 | 1.829
298.15 K, 101 kPa, x1 = 0.7856 | 1.847
298.15 K, 101 kPa, x1 = 0.8931 | 1.85
298.15 K, 101 kPa, x1 = 0.9407 | 1.839
303.15 K, 101.33 kPa, x2 = 0.132 | 1.553
303.15 K, 101.33 kPa, x2 = 0.2148 | 1.514
303.15 K, 101.33 kPa, x2 = 0.2725 | 1.49
303.15 K, 101.33 kPa, x2 = 0.3929 | 1.453
303.15 K, 101.33 kPa, x2 = 0.5243 | 1.428
303.15 K, 101.33 kPa, x2 = 0.5584 | 1.425
303.15 K, 101.33 kPa, x2 = 0.7423 | 1.409
303.15 K, 101.33 kPa, x2 = 0.8512 | 1.397
303.15 K, 101.33 kPa, x2 = 0.9147 | 1.391
